Test system: adult rat DRG neurons
Assay: Neurite outgrowth in dissociated adult rat dorsal root ganglion cultures
Type: cell-based
Conditions: 72h; BYL719 500 nM with 1938 above 10^-7 M
Excerpt: Dissociated adult rat dorsal root ganglion (DRG) cultures were used as an in vitro model for neuroregeneration[80],[81]. DRG neurons were isolated from adult male (>250g) Wistar rats as described, with DRGs from each rat cultured separately. Following culling via schedule 1 (rising concentration of CO2), the spinal column was removed and stored in PBS on ice. Cord tissue was removed to expose the DRGs and roots in the intervertebral foramen and the DRGs removed with forceps and scalpel under a dissecting microscope (Olympus SZ40). DRGs were manually cleaned by removal of roots, capsule and capillaries with forceps and then placed in DMEM supplemented with P/S. DRGs were treated with 0.125% collagenase type IV solution at 37°C for 90 min, and then mechanically dissociated by trituration using a 1 ml pipette. The collagenase solution was removed by 2 rounds of centrifugation in complete DMEM (DMEM with 1% P/S and 10% FBS) at 400 xg for 5 min, followed by resuspension of the DRG cell pellet in complete DMEM supplemented with 0.01 mM cytosine arabinoside. DRGs were plated in 75-cm[2] flasks coated with 0.1 mg/ml poly-D-lysine and incubated at 37°C, 5% CO2. […] 9 fields per well were captured and analysed using the CSIRO Neurite Analysis 2 […] in Columbus analysis software (Perkin Elmer). […]

CCN1CCN(c2ccc(Nc3cc(Nc4cccc5c4N(C(C)=O)CC5)ccn3)cc2)CC1 [Compound 1938]
neurite outgrowth (total length of neurites): doubling the total length of neurites

Reference: PMC7614683, “A small molecule PI3Kα activator for cardioprotection and neuroregeneration” (Nature, 2023)
